The nature of this assay: Hemodialysis treatments with trisodium citrate infusion into the arterial line and Citrasate dialysate; measured ionized calcium. In kind it is in vivo, maintenance HD patients. The note with it: 15 min into the treatment, mean±SD. As for the experimental part:
For one treatment only, Citrasate with 2.5 mEq/L Ca was used. No post-dialyzer Ca infusion was performed. Total Ca, Ca^++ and total Ci were measured systemically, pre- and post-dialyzer at the following time points: before HD (systemically only), at several time points throughout the treatment, and at the end of HD. […] Total protein and albumin were measured before dialysis. The most recent alkaline phosphatase (AP) and total parathyroid hormone (PTH) (Scantibodies assay, Scantibodies Laboratory, Inc., Santee, Calif.) were recorded. […] All subjects used Optiflux F180NR dialyzers (Fresenius Medical Care North America, Waltham, Mass.).
Measured and predicted systemic Ca^++ were compared pre-HD and at 15 min into the treatment. For the latter, pre-HD predicted were adjusted to measured values. Pre- and post-dialyzer comparisons between measured and estimated Ca^++ were performed at 15 min into the treatment. Deviations between predicted and measured systemic Ca^++ over the entire treatment were compared for tertiles of AP and tPTH.
Results are presented below as mean±standard deviation (SD) unless otherwise noted. Differences between predicted and measured values were calculated as predicted minus measured and were tested for significant deviation from zero by means of two-tailed one-sample t test. Bland-Altman plots were generated and the underlying data analyzed for systematic bias by means of linear regression. Statistical significance was accepted for an alpha level of <0.05.

Where [1] appears, read: Citrasate dialysate, no post-dialyzer Ca infusion.

Molecules are shown by their SMILES.

For the compound `O=C([O-])CC(O)(CC(=O)[O-])C(=O)[O-].[Na+].[Na+].[Na+]` [Trisodium citrate], under setting [1], the “Measured post-dialyzer Ca” value was 0.7 ± 0.05 mmol/L and the “Measured systemic Ca++” value stood at 1.01 ± 0.05 mmol/L. The “Measured pre-dialyzer Ca” value (after citrate infusion) worked out at 0.33 ± 0.06 mmol/L.

Source of the values: US10525186B2 (Fresenius Medical Care Holdings, Inc., priority 2009, dated 2020).
